{"source": "patent US4988688A", "about": "“4-(N-substituted amino)-2-butynyl-1-ureas and thioureas and derivatives thereof as centrally acting muscarinic agents” (Warner-Lambert Company, priority 1989, dated 1991)", "key": {"[1]": {"test_system": "age-related cognitive deficits", "conditions": "increasing acetylcholine release from presynaptic nerve terminals; cited from earlier work"}, "[2]": {"test_system": "central muscarinic antagonist site", "assay_type": "binding, rat", "conditions": "read-out: RQNB (1 μM) IC50"}, "[3]": {"test_system": "human SK-N-SH cells bearing muscarinic binding sites", "description": "In the Muscarinic Induced Inositol Phosphate Accumulation Assay (MIPA) human SK-N-SH cells bearing muscarinic binding sites are incubated with the test compound. The production of inositol phosphates is then measured. Stimulation of inositol phosphate turnover reflects the degree of muscarinic agonist activity of the test compound. The concentration of test compound required to produce a response 50% of the maximum is then determined."}, "[4]": {"biological_target": "central muscarinic agonist site", "assay": "Receptor [^3H]Cis-methyldioxalane Assay (RCMD)", "assay_type": "binding", "conditions": "rat cerebral cortex tissue; radiolabeled cis-methyldioxalane; head prints (0.1 μm)"}, "[5]": {"test_system": "aged humans and nonhuman primates", "conditions": "aged humans and nonhuman primates with decreased cognition; acetylcholinesterase inhibitors such as physostigmine; cited from earlier work"}, "mice": {"test_system": "mice", "conditions": "cited from earlier work"}}, "note": "Counter-ions that a name gives are not always drawn. Like-named read-outs stand apart in the source and are kept apart here."}
{"smiles": "Nc1ccncc1N", "note": "[3,4-diaminopyridine]", "values": [{"measurement": "effect on age-related cognitive deficits", "setting": "[1]", "value": "ameliorate age-related cognitive deficits"}]}
{"smiles": "CNC(=O)N(C)CC#CCN1CCCC1", "note": "[Example 1a, N,N'-Dimethyl-N-4-(1-pyrrolidinyl)-2-butynyl]-urea, hydrochloride]", "values": [{"measurement": "IC50", "setting": "[2]", "value": 8.79, "unit": "µM"}, {"measurement": "MIPA (ED50)", "setting": "[3]", "value": "2.91 × 10^-5"}, {"measurement": "IC50", "setting": "[4]", "value": 0.0434, "unit": "µM"}]}
{"smiles": "CNC(=O)N(C)CC#CCN(C)C.Cl", "note": "[Example 2, N-[4-(Dimethylamino)-2-butynyl]-N,N'-dimethyl-urea, monohydrochloride]", "values": [{"measurement": "IC50", "setting": "[2]; rat cerebral cortex tissue, radiolabeled quinuclidinyl benzilate, head prints (1 μM)", "value": 100, "unit": "µM"}, {"measurement": "MIPA (ED50)", "setting": "[3]", "value": "1.84 × 10^-5"}, {"measurement": "IC50", "setting": "[4]", "value": 0.275, "unit": "µM"}]}
{"smiles": "CNC(=O)Oc1ccc2c(c1)[C@]1(C)CCN(C)[C@@H]1N2C", "note": "[physostigmine]", "values": [{"measurement": "memory improvement", "setting": "[5]", "value": "improved memory"}]}
{"smiles": "C(#CCN1CCCC1)CN1CCCC1", "note": "[tremorine, 1,4-dipyrrolidino-2-butyne]", "values": [{"measurement": "tremor of the head and limbs and its duration", "setting": "mice", "value": "profound tremor of the head and limbs lasting for more than one hour"}]}
